Laboratory results from article PMC12298351, “Novel 3,19-(N-Phenyl-3-(4-fluorophenyl)-pyrazole) Acetal of Andrographolide Promotes Cell Cycle Arrest and Apoptosis in MDA-MB-231 Breast Cancer Cells” (Pharmaceuticals, 2025).

What was measured:
UO-31 = conditions: UO-31, Renal
CAKI-1 = conditions: CAKI-1, Renal
UACC-62 = conditions: UACC-62, Melanoma
SK-MEL-28 = conditions: SK-MEL-28, Melanoma
TK-10 = format: cell-based; conditions: TK-10, Renal
RXF 393 = conditions: RXF 393, Renal
DU-145 = conditions: DU-145, Prostate
RPMI-8226 = conditions: RPMI-8226, Leukemia
MCF7 = conditions: MCF7, Breast
SF-268 = conditions: SF-268, CNS
K-562 = conditions: K-562, Leukemia
UACC-257 = conditions: UACC-257, Melanoma
A498 = conditions: A498, Renal
OVCAR-8 = conditions: OVCAR-8, Ovarian
SW-620 = conditions: SW-620, Colon
M14 = format: cell-based; conditions: M14, Melanoma
SK-OV-3 = conditions: SK-OV-3, Ovarian
OVCAR-3 = conditions: OVCAR-3, Ovarian
IGROV1 = conditions: IGROV1, Ovarian
KM12 = conditions: KM12, Colon
U251 = conditions: U251, CNS
MDA-MB-468 = conditions: MDA-MB-468, Breast
[1] = read-out: 50% lethal concentration (LC50), Renal
[2] = read-out: 50% lethal concentration (LC50)
[3] = read-out: 50% lethal concentration (LC50), Leukemia
[4] = read-out: 50% lethal concentration (LC50), Non-Small Cell Lung

C=C1CCC2C3(C)COC(c4cn(-c5ccccc5)nc4-c4cccc(F)c4)OC3CCC2(C)C1CC=C1C(=O)OCC1O (centres unmarked) [1c]
GI50 (SN12C; Renal): 1.59 µM
Total growth inhibition (TGI) (SN12C; Renal): 3.42 µM
CC50 (SN12C; [1]): 7.34 µM
GI50 (UO-31): 1.78 µM
Total growth inhibition (TGI) (UO-31): 2.77 µM
CC50 (UO-31; [2]): 5.46 µM
GI50 (CAKI-1): 1.56 µM
Total growth inhibition (TGI) (CAKI-1): 3.09 µM
CC50 (CAKI-1; [2]): 6.13 µM
GI50 (UACC-62): 1.65 µM
Total growth inhibition (TGI) (UACC-62): 3.21 µM
CC50 (UACC-62; [2]): 6.22 µM
GI50 (CCRF-CEM; Leukemia): 2.06 µM
Total growth inhibition (TGI) (CCRF-CEM; Leukemia): > 100 µM
CC50 (CCRF-CEM; [3]): > 100 µM
GI50 (SK-MEL-28): 1.77 µM
Total growth inhibition (TGI) (SK-MEL-28): 3.35 µM
CC50 (SK-MEL-28; [2]): 6.36 µM
GI50 (NCI/ADR-RES; Ovarian): 1.77 µM
Total growth inhibition (TGI) (NCI/ADR-RES; Ovarian): 3.99 µM
CC50 (NCI/ADR-RES; read-out: 50% lethal concentration (LC50), Ovarian): 8.99 µM
GI50 (TK-10): 1.41 µM
GI50 (RXF 393): 1.64 µM
Total growth inhibition (TGI) (RXF 393): 3.12 µM
CC50 (RXF 393; [2]): 5.94 µM
GI50 (LOX IMVI; Melanoma): 1.44 µM
Total growth inhibition (TGI) (LOX IMVI; Melanoma): 2.75 µM
CC50 (LOX IMVI; read-out: 50% lethal concentration (LC50), Melanoma): 5.25 µM
GI50 (DU-145): 1.97 µM
Total growth inhibition (TGI) (DU-145): 4.25 µM
CC50 (DU-145; [2]): 9.15 µM
GI50 (RPMI-8226): 2.63 µM
Total growth inhibition (TGI) (RPMI-8226): > 100 µM
CC50 (RPMI-8226; [2]): > 100 µM
GI50 (MCF7): 1.63 µM
Total growth inhibition (TGI) (MCF7): 5.49 µM
CC50 (MCF7; [2]): 50.1 µM
GI50 (SF-268): 2.27 µM
Total growth inhibition (TGI) (SF-268): 5.61 µM
CC50 (SF-268; [2]): 28.4 µM
GI50 (K-562): 2.14 µM
Total growth inhibition (TGI) (K-562): > 100 µM
CC50 (K-562; [2]): > 100 µM
GI50 (UACC-257): 1.93 µM
Total growth inhibition (TGI) (UACC-257): 3.87 µM
Total growth inhibition (TGI) (HOP-62; HOP-62, Non-Small Cell Lung): 3.86 µM
GI50 (HOP-62; HOP-62, Non-Small-Cell Lung): 1.74 µM
CC50 (HOP-62; read-out: 50% lethal concentration (LC50), HOP-62, Non-Small Cell Lung): 8.55 µM
GI50 (A498): 4.13 µM
Total growth inhibition (TGI) (A498): 18.4 µM
CC50 (A498; [2]): 53.3 µM
GI50 (OVCAR-8): 1.77 µM
Total growth inhibition (TGI) (OVCAR-8): 3.88 µM
CC50 (OVCAR-8; [2]): 8.5 µM
GI50 (SW-620): 5.71 µM
Total growth inhibition (TGI) (SW-620): > 100 µM
CC50 (SW-620; [2]): > 100 µM
GI50 (SR; Leukemia): 2.2 µM
Total growth inhibition (TGI) (SR; Leukemia): > 100 µM
CC50 (SR; [3]): > 100 µM
GI50 (M14): 1.75 µM
Total growth inhibition (TGI) (M14): 3.59 µM
GI50 (SK-OV-3): 2.7 µM
Total growth inhibition (TGI) (SK-OV-3): 6.09 µM
CC50 (SK-OV-3; [2]): > 100 µM
GI50 (ACHN; Renal): 1.8 µM
Total growth inhibition (TGI) (ACHN; Renal): 3.53 µM
CC50 (ACHN; [1]): 6.94 µM
Total growth inhibition (TGI) (A549/ATCC; Non-Small Cell Lung): 25.3 µM
GI50 (A549/ATCC; Non-Small-Cell Lung): 3.88 µM
CC50 (A549/ATCC; [4]): > 100 µM
GI50 (OVCAR-3): 1.95 µM
Total growth inhibition (TGI) (OVCAR-3): 3.68 µM
CC50 (OVCAR-3; [2]): 6.94 µM
GI50 (IGROV1): 2.07 µM
Total growth inhibition (TGI) (IGROV1): 5.72 µM
CC50 (IGROV1; [2]): > 100 µM
GI50 (KM12): 2.26 µM
Total growth inhibition (TGI) (KM12): 4.47 µM
GI50 (U251): 1.81 µM
Total growth inhibition (TGI) (U251): 5.61 µM
Total growth inhibition (TGI) (EKVX; Non-Small Cell Lung): 5.17 µM
GI50 (EKVX; Non-Small-Cell Lung): 2.21 µM
CC50 (EKVX; [4]): 56 µM
GI50 (MDA-MB-468): 1.63 µM
Total growth inhibition (TGI) (MDA-MB-468): 3.13 µM
CC50 (MDA-MB-468; [2]): 6.01 µM
Total growth inhibition (TGI) (NCI-H460; NCI-H460, Non-Small Cell Lung): 3.59 µM
GI50 (NCI-H460; NCI-H460, Non-Small-Cell Lung): 1.81 µM
